According to patent EP0748335B1, “ANTIBIOTIC STALOBACINS” (SHIONOGI & CO., LTD., priority 1994, dated 1995):
Converted amounts (≈) assume the structure as drawn.

How the values were obtained:
E. faecalis SR1004 [1] = experiment: Protective effect in systemically infected mice; assay type: in vivo; conditions: mice challenged intraperitoneally with E. faecalis SR1004; subcutaneous administration one hour after challenge; survival ratio on 7th day
Procedure: (§1) Antibacterial activity in vivo of stalobacin I was assayed. Mice were intraperitoneally challenged with infectious bacteria. One hour after the challenge, the test compound was subcutaneously administered. ED50 values was calculated on the basis of survival ratio on 7th day after the challenge. MIC was determined according to the agar dilution method.

S. pneumoniae Type I [2] = experiment: Protective effect in systemically infected mice; assay type: in vivo; conditions: mice challenged intraperitoneally with S. pneumoniae Type I; subcutaneous administration one hour after challenge; survival ratio on 7th day
Procedure: as §1

[3] = tested on: S. aureus SR3637 (H-MRSA); experiment: Protective effect in systemically infected mice; assay type: in vivo; conditions: mice challenged intraperitoneally with S. aureus SR3637 (H-MRSA); subcutaneous administration one hour after challenge; survival ratio on 7th day
Procedure: as §1

E. faecalis SR1004 [4] = assay type: cell-based
Procedure: as §1

S. pneumoniae Type I [5] = assay type: cell-based
Procedure: as §1

[6] = tested on: S. aureus SR3637 (H-MRSA); assay type: cell-based
Procedure: as §1

S. faecalis SR1004 = experiment: In vitro antibacterial activity, agar dilution method; assay type: cell-based; conditions: 10^6 cfu/ml
Procedure: (§2) Antibacterial activity in vitro of antibiotic stalobacins H and I obtained in Example 1 was assayed by the agar dilution method.

S. aureus 3626 (MRSA) = experiment: as above; assay type: cell-based; conditions: 10^6 cfu/ml
Procedure: as §2

S. aureus FDA JC-1 = experiment: as above; assay type: cell-based; conditions: 10^6 cfu/ml
Procedure: as §2

## CCCCCC/C=C\CCCCC[C@@H]1C[C@H]1/C=C/C(O)C(=O)N[C@H](C(=O)N(C)[C@@H](CC(=O)O)C(=O)N(COC(C)(CC)C(NC(=O)C(NC(=O)[C@@H](N)CC(=O)O)C(O)C(O)CNC(=N)N)C(=O)NCC(=O)N[C@@H](CO)C(=O)O)[C@@]12C[C@@H]1CN(C(=N)N)C2=O)[C@H](O)C(=O)O (stereo partly drawn) [Stalobacin I]
E. faecalis SR1004 [1]
  ED50: 1.50 mg/kg
S. pneumoniae Type I [2]
  ED50: 0.046 mg/kg
[3]
  ED50: 0.12 mg/kg
E. faecalis SR1004 [4]
  MIC: 0.2 µg/mL (≈ 151 nM)
S. pneumoniae Type I [5]
  MIC: 0.006 µg/mL (≈ 4.53 nM)
[6]
  MIC: 0.012 µg/mL (≈ 9.05 nM)
S. faecalis SR1004
  Antibacterial activity in vitro: 0.2 µg/mL
S. aureus 3626 (MRSA)
  Antibacterial activity in vitro: 0.1 µg/mL
S. aureus FDA JC-1
  Antibacterial activity in vitro: 0.05 µg/mL
